Measurements from US20090311782A1, “METHOD FOR PROMOTING DIFFERENTIATION OF STEM CELL INTO INSULIN PRODUCING CELL” (TAIPEI VETERANS GENERAL HOSPITAL, priority 2008, published 2009).

Legend:
Assay type in all cases: cell-based
[1] = system: IPCs derived from human MSCs; experiment: Insulin release by IPCs quantified by human insulin ELISA; conditions: IBMX 100 μM, low glucose concentration (5 mM), 1 hour incubation in KRB buffer, FIG. 3B, p<0.05
Procedure: Insulin is an endocrine for reducing blood sugar, and normal islet cells are induced by glucose to release insulin. In order to quantify insulin release by IPCs, a human insulin ELISA (Enzyme-Link ImmunoSorbent Assay) is employed herein.
The suspension stage IV cells are rinsed twice in Phosphate Buffered Saline (PBS) and Krebs-Ringer bicarbonate (KRB) buffer (120 mM NaCl, 5 m M KCl, 2.5 m M CaCl2, 1.1 mM MgCl2, 25 mM NaHCO3 , 0.1 BSA) and preincubated for 1 hour with KRB buffer containing 5 mM glucose. The suspension stage IV cells are then incubated for 1 hour in fresh KRB buffer with 5 mM, 10 mM, 15 mM or 25 mM glucose, and the released insulin in the incubation medium is quantified by ELISA. The quantified insulin release results are shown in FIG. 3A, wherein undifferentiated MSCs are served as a control (*p<0.05 as compared with 5 mM; #p<0.05 as compared with 10 mM; student's t test). […] The insulin secreted by IPCs derived from human MSCs in the present invention is up to 1.1 ng/h/2.5×10^5 IPCs, which is even higher than those secreted by IPCs derived from rodent bone marrow stem cells in the prior art (referring to the citations 5-7). […]

human MSCs [2] = experiment: Relative mRNA expression of insulin and Glut2 by RT-PCR and agarose electrophoresis, normalized by β-actin (FIG. 1); conditions: end of four-stage culture
From the text: Islet cells are aggregated cells, and the extracellular matrix (ECM) thereof includes fibronectin and laminin. The present invention provides a method for promoting MSCs to differentiate into IPCs by cell pellet suspension culture with additional fibronectin or laminin. The cells of the embodiments and the control groups at the end of the four-stage culture are harvested, and the relative mRNA expression levels of insulin and glucose transporter 2 (Glut2) thereof are detected by reverse-transcription polymerase chain reaction (RT-PCR) and agarose electrophoresis, and are normalized by the expression level of β-actin. In addition, it should be noted that all of the bar graphs shown in FIGS. 1-4 are represented by the measured mean with its standard deviation.

human MSCs [3] = experiment: Insulin and Glut2 gene expression in stage IV cells by real-time RT-PCR, normalized by GAPDH (FIGS. 4A, 4B); conditions: pellet suspension culture; for gene expressions of insulin and Glut2: 5 μg/mL ECM, compared with pellet culture without any ECM
Procedure: In order to further compare the different differentiation effects resulting from different ECMs when stem cells differentiate into IPCs in pellet suspension culture, the present invention performs the tests by adding fibronectin and laminin in combination or separately.
The gene expressions of insulin and Glut2 in stage IV cells of the present embodiments I-IV are analyzed by real-time RT-PCR respectively, and the detected results are further normalized by the expression level of glyceraldehyde-3-phosphate dehydrogenase (GAPDH) to measure the mRNA expression levels.

human MSCs [4] = experiment: Dithizone (DTZ) staining for islet differentiation; conditions: pellet suspension culture with versus without fibronectin, DTZ staining (not shown)
From the text: Islet differentiation is further evaluated by dithizone (DTZ) staining to detect zinc ion, which binds six insulin molecules within the cells. Cells in the control groups I and II are not stained by DTZ; cells in the embodiment II are slightly stained by DTZ, and cells in the embodiment I are greatly stained by DTZ (not shown).

[5] = monolayer culture with 5 μg/mL fibronectin (control group I)
[6] = pellet suspension culture with 5 μg/mL fibronectin (embodiment I)

Compound | insulin release [1] | Glut2 expression (human MSCs [2]; [5]) | gene expression of insulin (human MSCs [2]; [5]) | Glut2 expression (human MSCs [2]; [6]) | gene expression of insulin (human MSCs [2]; [6]) | gene expressions of insulin and Glut2 (human MSCs [3]) | differentiation of MSCs into IPCs (human MSCs [4]) | gene expression level compared with fibronectin plus laminin (human MSCs [3]) | insulin and Glut2 expressions compared with fibronectin only (human MSCs [3]; compared with embodiment I (fibronectin only))
CC(C)Cn1c(=O)n(C)c(=O)c2[nH]cnc21 [IBMX, 3-isobutyl-1-methylxanthine] | stimulates insulin release |  |  |  |  |  |  |  | 
fibronectin |  | moderately detected | not detected | markedly detected | obviously detected | increased gene expressions of insulin and Glut2 | can further enhance the differentiation of MSCs into IPCs |  | 
laminin |  |  |  |  |  | increased gene expressions of insulin and Glut2 |  | significantly higher than that of the embodiment IV | higher than the embodiment I
